Measured values from US9643970B2, “Substituted imidazo [1,5-a]pyrazines as PDE9 inhibitors” (H Lundbeck A/S, priority 2012, dated 2017).

These compounds were tested against PDE9 (Homo sapiens, UniProt O76083) (assay: PDE9 inhibition assay). Settings: not given.
Assay type: biochemical
Procedure: Reactions are initiated by addition of the cyclic nucleotide substrate, and reactions are allowed to proceed for one hr at room temperature before being terminated through mixing with 15 uL 8 mg/mL yttrium silicate SPA beads (Amersham). […] IC50 values were calculated by non linear regression using XLfit (IDBS).

PDE9, sequence (O76083 whole entry): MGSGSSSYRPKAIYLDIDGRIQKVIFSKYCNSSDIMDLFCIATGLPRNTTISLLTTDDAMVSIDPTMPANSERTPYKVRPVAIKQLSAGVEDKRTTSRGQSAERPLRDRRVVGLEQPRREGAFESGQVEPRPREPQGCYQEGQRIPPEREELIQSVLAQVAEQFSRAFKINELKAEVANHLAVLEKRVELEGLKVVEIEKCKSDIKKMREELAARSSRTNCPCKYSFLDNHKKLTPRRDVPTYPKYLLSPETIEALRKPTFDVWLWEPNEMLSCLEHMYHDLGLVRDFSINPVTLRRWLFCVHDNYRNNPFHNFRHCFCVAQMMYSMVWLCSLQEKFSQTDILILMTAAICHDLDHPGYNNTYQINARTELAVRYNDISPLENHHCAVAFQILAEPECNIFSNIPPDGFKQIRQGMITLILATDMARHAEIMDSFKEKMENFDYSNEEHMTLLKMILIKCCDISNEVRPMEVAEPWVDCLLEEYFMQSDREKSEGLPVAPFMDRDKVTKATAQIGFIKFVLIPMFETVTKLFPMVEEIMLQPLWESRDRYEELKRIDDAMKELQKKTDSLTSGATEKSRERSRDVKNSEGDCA

| SMILES | IC50 [nM] |
| --- | --- |
| N#Cc1ccc(OC2CN(Cc3cn4c(-c5ccc(F)cc5)ncc4c(=O)[nH]3)C2)cc1 [Compound 92, 4-[1-[[3-(4-fluorophenyl)-8-oxo-7h-imidazo[1,5-a]pyrazin-6-yl]methyl]azetidin-3-yl]oxybenzonitrile] | 76 |
| CC(c1cn2c(-c3ccccc3)ncc2c(=O)[nH]1)N1CC(Oc2ccccc2F)C1 (stereo not shown) [Compound 32, 6-[1-[3-(2-fluorophenoxy)azetidin-1-yl]ethyl]-3-phenyl-7h-imidazo[1,5-a]pyrazin-8-one] | 72 |
| COc1ccc(C2CN(C(C)c3cn4c(-c5ccc(F)cc5)ncc4c(=O)[nH]3)C2)cc1 (stereo not shown) [Compound 126, 3-(4-fluorophenyl)-6-[1-[3-(4-methoxyphenyl)azetidin-1-yl]ethyl]-7h-imidazo[1,5-a]pyrazin-8-one] | 70 |
| CC(c1cn2c(-c3ccccc3)ncc2c(=O)[nH]1)N1CC(c2ccccc2)C1 (stereo not shown) [Compound 18, 3-phenyl-6-[1-(3-phenylazetidin-1-yl)ethyl]-7h-imidazo[1,5-a]pyrazin-8-one] | 54 |
| O=c1[nH]c(CN2CC(Oc3cccc(C(F)(F)F)c3)C2)cn2c(-c3ccc(F)cc3)ncc12 [Compound 95, 3-(4-fluorophenyl)-6-[[3-[3-(trifluoromethyl)phenoxy]azetidin-1-yl]methyl]-7h-imidazo[1,5-a]pyrazin-8-one] | 97 |
| COc1ccc(C2CN(Cc3cn4c(-c5cc(F)cc(F)c5)ncc4c(=O)[nH]3)C2)cc1 [Compound 122, 3-(3,5-difluorophenyl)-6-[[3-(4-methoxyphenyl)azetidin-1-yl]methyl]-7h-imidazo[1,5-a]pyrazin-8-one] | 38 |
| CC(c1cn2c(-c3ccccc3)ncc2c(=O)[nH]1)N1CC(Oc2ccccc2)C1 (stereo not shown) [Compound 25, 6-[1-(3-phenoxyazetidin-1-yl)ethyl]-3-phenyl-7h-imidazo[1,5-a]pyrazin-8-one] | 28 |
| O=c1[nH]c(CN2CC(c3ccc(F)cc3)C2)cn2c(-c3ccccc3)ncc12 [Compound 19, 6-[[3-(4-fluorophenyl)azetidin-1-yl]methyl]-3-phenyl-7h-imidazo[1,5-a]pyrazin-8-one] | 69 |

Other lines, results leading:

| IC50 [nM] | SMILES |
| --- | --- |
| 12 | N#Cc1cccc(OC2CN(Cc3cn4c(C5CCOCC5)ncc4c(=O)[nH]3)C2)c1 [Compound 94, 3-[1-[(8-oxo-3-tetrahydropyran-4-yl-7h-imidazo[1,5-a]pyrazin-6-yl)methyl]azetidin-3-yl]oxybenzonitrile] |
| 115 | O=c1[nH]c(CN2CC(Oc3ccc(F)cc3)C2)cn2c(C3CCOCC3)ncc12 [Compound 75, 6-[[3-(4-fluorophenoxy)azetidin-1-yl]methyl]-3-tetrahydropyran-4-yl-7h-imidazo[1,5-a]pyrazin-8-one] |
| 30 | COc1ccc(C2CN(Cc3cn4c(C5CCOCC5)ncc4c(=O)[nH]3)C2)cc1 [Compound 69, 6-[[3-(4-methoxyphenyl)azetidin-1-yl]methyl]-3-tetrahydropyran-4-yl-7h-imidazo[1,5-a]pyrazin-8-one] |
| 8 | O=c1[nH]c(CN2CC(c3ccccc3)C2)cn2c(C3CCOCC3)ncc12 [Compound 68, 6-[(3-phenylazetidin-1-yl)methyl]-3-tetrahydropyran-4-yl-7h-imidazo[1,5-a]pyrazin-8-one] |

Same assay, conditions: SPA assay, 10 nM 3H-cAMP, 1 hour incubation; read-out: IC50

| SMILES | IC50 [nM] |
| --- | --- |
| N#Cc1ccc(C2CN(Cc3cn4c(-c5ccccc5)ncc4c(=O)[nH]3)C2)cc1 [Compound 35, 4-[1-[(8-oxo-3-phenyl-7h-imidazo[1,5-a]pyrazin-6-yl)methyl]azetidin-3-yl]benzonitrile] | 49 |
| CC(c1cn2c(-c3ccc(F)cc3)ncc2c(=O)[nH]1)N1CC(Oc2ccc(OC(F)(F)F)cc2)C1 (stereo not shown) [Compound 120, 3-(4-fluorophenyl)-6-[1-[3-[4-(trifluoromethoxy)phenoxy]azetidin-1-yl]ethyl]-7h-imidazo[1,5-a]pyrazin-8-one] | 35 |
| CC(c1cn2c(-c3ccccc3)ncc2c(=O)[nH]1)N1CC(Oc2cnccn2)C1 (stereo not shown) [Compound 15, 3-phenyl-6-[1-(3-pyrazin-2-yloxyazetidin-1-yl)ethyl]-7h-imidazo[1,5-a]pyrazin-8-one] | 40 |
| COC1CN(Cc2cn3c(-c4ccccc4)ncc3c(=O)[nH]2)C1 [Compound 3, 6-[(3-methoxyazetidin-1-yl)methyl]-3-phenyl-7h-imidazo[1,5-a]pyrazin-8-one] | 90 |
| O=c1[nH]c(CN2CC(Oc3cnc4ccccc4n3)C2)cn2c(-c3ccccc3)ncc12 [Compound 13, 3-phenyl-6-[(3-quinoxalin-2-yloxyazetidin-1-yl)methyl]-7h-imidazo[1,5-a]pyrazin-8-one] | 7 |
| N#Cc1cccc(OC2CN(Cc3cn4c(-c5ccc(F)cc5)ncc4c(=O)[nH]3)C2)c1 [Compound 93, 3-[1-[[3-(4-fluorophenyl)-8-oxo-7h-imidazo[1,5-a]pyrazin-6-yl]methyl]azetidin-3-yl]oxybenzonitrile] | 18 |
| O=c1[nH]c(CN2CC(c3ncccn3)C2)cn2c(-c3ccc(F)cc3)ncc12 [Compound 53, 3-(4-fluorophenyl)-6-[(3-pyrimidin-2-ylazetidin-1-yl)methyl]-7h-imidazo[1,5-a]pyrazin-8-one] | 22 |
| O=c1[nH]c(CN2CC(Oc3ccc(F)cc3)C2)cn2c(-c3ccc(F)cc3)ncc12 [Compound 63, 6-[[3-(4-fluorophenoxy)azetidin-1-yl]methyl]-3-(4-fluorophenyl)-7h-imidazo[1,5-a]pyrazin-8-one] | 13 |
| CC1CN(Cc2ccc(F)cc2)CC1c1cn2c(-c3ccc(Cl)cc3)nc(Br)c2c(=O)[nH]1 (stereo not shown) [Compound 111, 1-bromo-3-(4-chlorophenyl)-6-[1-[(4-fluorophenyl)methyl]-4-methyl-pyrrolidin-3-yl]-7h-imidazo[1,5-a]pyrazin-8-one] | 74 |
| CN(Cc1ccccc1)Cc1cn2c(-c3ccccc3)ncc2c(=O)[nH]1 [Compound 9, 6-[[benzyl(methyl)amino]methyl]-3-phenyl-7h-imidazo[1,5-a]pyrazin-8-one] | 156 |
| COC(=O)C1CN(Cc2ccccc2)CC1c1cn2c(-c3ccccc3)ncc2c(=O)[nH]1 (stereo not shown) [Compound 10, methyl 1-benzyl-4-(8-oxo-3-phenyl-7h-imidazo[1,5-a]pyrazin-6-yl)pyrrolidine-3-carboxylate] | 43 |
| O=c1[nH]c(CN2CCC(c3cccc(C(F)(F)F)c3)C2)cn2c(C3CCOC3)ncc12 (stereo not shown) [Compound 125, 3-tetrahydrofuran-3-yl-6-[[3-[3-(trifluoromethyl)phenyl]pyrrolidin-1-yl]methyl]-7h-imidazo[1,5-a]pyrazin-8-one] | 48 |
| CN(C)c1ccc(C2CN(Cc3cn4c(-c5ccc(F)cc5)ncc4c(=O)[nH]3)C2)cc1 [Compound 51, 6-[[3-(4-dimethylaminophenyl)azetidin-1-yl]methyl]-3-(4-fluorophenyl)-7h-imidazo[1,5-a]pyrazin-8-one] | 7 |
| CC(c1cn2c(C3CCCC3)ncc2c(=O)[nH]1)N1CC(c2ccc(F)cc2)C1 (stereo not shown) [Compound 40, 3-cyclopentyl-6-[1-[3-(4-fluorophenyl)azetidin-1-yl]ethyl]-7h-imidazo[1,5-a]pyrazin-8-one] | 5 |
| CC(c1cn2c(-c3ccccc3)ncc2c(=O)[nH]1)N1CC(Oc2cccc(F)c2)C1 (stereo not shown) [Compound 24, 6-[1-[3-(3-fluorophenoxy)azetidin-1-yl]ethyl]-3-phenyl-7h-imidazo[1,5-a]pyrazin-8-one] | 25 |
| O=c1[nH]c(CN2CC(c3ccc(F)cc3)C2)cn2c(-c3ccc(F)cc3)ncc12 [Compound 76, 3-(4-fluorophenyl)-6-[[3-(4-fluorophenyl)azetidin-1-yl]methyl]-7h-imidazo[1,5-a]pyrazin-8-one] | 33 |

More lines, now with the values ahead:

| IC50 [nM] | SMILES |
| --- | --- |
| 13 | O=c1[nH]c(CN2CC(Oc3ccc(OC(F)(F)F)cc3)C2)cn2c(C3CCOCC3)ncc12 [Compound 64, 3-tetrahydropyran-4-yl-6-[[3-[4-(trifluoromethoxy)phenoxy]azetidin-1-yl]methyl]-7h-imidazo[1,5-a]pyrazin-8-one] |
| 20 | O=c1[nH]c(CN2CC(OCc3ccccc3)C2)cn2c(C3CCOCC3)ncc12 [Compound 67, 6-[(3-benzyloxyazetidin-1-yl)methyl]-3-tetrahydropyran-4-yl-7h-imidazo[1,5-a]pyrazin-8-one] |
| 110 | O=c1[nH]c(CN2CCC(Oc3ncccn3)C2)cn2c(C3CCOCC3)ncc12 (stereo not shown) [Compound 84, 6-[(3-pyrimidin-2-yloxypyrrolidin-1-yl)methyl]-3-tetrahydropyran-4-yl-7h-imidazo[1,5-a]pyrazin-8-one] |
| 33 | CC1CN(Cc2ccccc2)CC1c1cn2c(-c3ccccc3)ncc2c(=O)[nH]1 (stereo not shown) [Compound 31, 6-(1-benzyl-4-methyl-pyrrolidin-3-yl)-3-phenyl-7h-imidazo[1,5-a]pyrazin-8-one] |
| 26 | COc1ccc(C2CN(Cc3cn4c(C5CCCC5)ncc4c(=O)[nH]3)C2)cc1 [Compound 41, 3-cyclopentyl-6-[[3-(4-methoxyphenyl)azetidin-1-yl]methyl]-7h-imidazo[1,5-a]pyrazin-8-one] |
| 19 | CC1CN(Cc2ccccn2)CC1c1cn2c(C3CCOCC3)ncc2c(=O)[nH]1 (stereo not shown) [Compound 81, 6-[4-methyl-1-(2-pyridylmethyl)pyrrolidin-3-yl]-3-tetrahydropyran-4-yl-7h-imidazo[1,5-a]pyrazin-8-one] |
| 102 | O=c1[nH]c(CN2CC(c3ncccn3)C2)cn2c(C3CCOCC3)ncc12 [Compound 54, 6-[(3-pyrimidin-2-ylazetidin-1-yl)methyl]-3-tetrahydropyran-4-yl-7h-imidazo[1,5-a]pyrazin-8-one] |
| 139 | O=c1[nH]c(CN2CC(Oc3cnc4ccccc4n3)C2)cn2c(C3CCOCC3)ncc12 [Compound 72, 6-[(3-quinoxalin-2-yloxyazetidin-1-yl)methyl]-3-tetrahydropyran-4-yl-7h-imidazo[1,5-a]pyrazin-8-one] |
| 46 | CC(c1cn2c(C3CCOCC3)ncc2c(=O)[nH]1)N1CC(c2ncccn2)C1 (stereo not shown) [Compound 91, 6-[1-(3-pyrimidin-2-ylazetidin-1-yl)ethyl]-3-tetrahydropyran-4-yl-7h-imidazo[1,5-a]pyrazin-8-one] |
